# Structures can show the parent of a compound that is named as a salt.
# Molecular target: ROCK2 (Homo sapiens (Human), UniProt O75116)
# Experiment: biochemical
# 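Further: rho kinase enzyme reaction halted with EDTA, phospho- and non-phospho peptide separated for read-out, kinase activity inhibition derived across a dose-response series, DMSO under 2%.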
# Chain of ROCK2 (O75116 whole entry, species assumed): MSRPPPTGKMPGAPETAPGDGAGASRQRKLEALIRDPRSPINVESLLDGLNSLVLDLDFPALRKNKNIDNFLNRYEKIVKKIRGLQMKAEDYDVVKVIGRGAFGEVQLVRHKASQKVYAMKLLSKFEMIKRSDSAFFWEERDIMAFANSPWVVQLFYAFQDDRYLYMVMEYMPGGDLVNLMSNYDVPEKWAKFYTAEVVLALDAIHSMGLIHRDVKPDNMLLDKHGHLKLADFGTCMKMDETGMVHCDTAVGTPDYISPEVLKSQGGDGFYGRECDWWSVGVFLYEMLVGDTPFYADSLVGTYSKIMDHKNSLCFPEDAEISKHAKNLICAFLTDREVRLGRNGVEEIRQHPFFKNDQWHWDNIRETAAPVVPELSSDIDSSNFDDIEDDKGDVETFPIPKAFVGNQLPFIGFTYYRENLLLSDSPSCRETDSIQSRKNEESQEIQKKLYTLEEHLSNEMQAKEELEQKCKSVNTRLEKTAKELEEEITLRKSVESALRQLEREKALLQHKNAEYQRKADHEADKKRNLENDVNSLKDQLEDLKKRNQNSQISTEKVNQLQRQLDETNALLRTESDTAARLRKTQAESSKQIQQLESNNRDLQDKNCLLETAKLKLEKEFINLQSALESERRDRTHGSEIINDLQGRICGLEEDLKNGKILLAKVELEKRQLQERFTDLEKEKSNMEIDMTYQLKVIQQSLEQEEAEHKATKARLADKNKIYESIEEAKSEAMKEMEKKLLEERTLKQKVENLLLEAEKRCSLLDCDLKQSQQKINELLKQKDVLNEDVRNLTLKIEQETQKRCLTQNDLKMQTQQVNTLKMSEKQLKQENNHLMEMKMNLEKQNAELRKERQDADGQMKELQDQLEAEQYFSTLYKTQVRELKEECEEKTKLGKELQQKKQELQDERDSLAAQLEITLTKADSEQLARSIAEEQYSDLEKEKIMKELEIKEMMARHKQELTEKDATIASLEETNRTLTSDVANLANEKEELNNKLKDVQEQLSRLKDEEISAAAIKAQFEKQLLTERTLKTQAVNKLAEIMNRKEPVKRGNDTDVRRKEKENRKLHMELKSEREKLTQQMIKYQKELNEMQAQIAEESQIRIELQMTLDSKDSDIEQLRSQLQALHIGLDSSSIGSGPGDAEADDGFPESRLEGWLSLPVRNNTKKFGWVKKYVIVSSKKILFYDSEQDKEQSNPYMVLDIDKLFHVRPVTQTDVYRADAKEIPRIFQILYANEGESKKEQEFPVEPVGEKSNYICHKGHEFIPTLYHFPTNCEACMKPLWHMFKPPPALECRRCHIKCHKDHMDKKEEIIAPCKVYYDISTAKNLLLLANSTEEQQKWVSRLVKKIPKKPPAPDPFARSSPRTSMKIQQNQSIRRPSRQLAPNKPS
row,Structure (SMILES),IC50
1,"COc1nc(N2CCC(N(C)C3CCN(C)CC3)C2=O)ccc1-c1cn[nH]c1 (racemic) [Example 279, 1-(6-methoxy-5-(1H-pyrazol-4-yl)pyridin-2-yl)-3-(methyl(1-methylpiperidin-4-yl)amino)pyrrolidin-2-one]",100 to 2200 nM
2,"COc1nc(N2CCC(N3CCc4cccnc43)C2=O)ccc1-c1cn[nH]c1 (racemic) [Example 281, 3-(2,3-dihydro-1H-pyrrolo[2,3-b]pyridin-1-yl)-1-(6-methoxy-5-(1H-pyrazol-4-yl)pyridin-2-yl)pyrrolidin-2-one]",10 to 100 nM
3,"COc1nc(N2CCC(N3CCC(F)(F)CC3)C2=O)ccc1-c1cn[nH]c1 (racemic) [Example 282, 3-(4,4-difluoropiperidin-1-yl)-1-(6-methoxy-5-(1H-pyrazol-4-yl)pyridin-2-yl)pyrrolidin-2-one hydrochloride]",10 to 100 nM
4,"COc1nc(N2CCC(N3CCN(S(C)(=O)=O)CC3)C2=O)ccc1-c1cn[nH]c1 (racemic) [Example 286, 1-(6-methoxy-5-(1H-pyrazol-4-yl)pyridin-2-yl)-3-(4-(methylsulfonyl)piperazin-1-yl)pyrrolidin-2-one]",100 to 2200 nM
5,"COc1ccc(N2CCN(C3CCN(c4ccc(-c5cn[nH]c5)c(OC)n4)C3=O)CC2)cc1 (racemic) [Example 287, 1-(6-methoxy-5-(1H-pyrazol-4-yl)pyridin-2-yl)-3-(4-(4-methoxyphenyl)piperazin-1-yl)pyrrolidin-2-one dihydrochloride]",100 to 2200 nM
6,"COc1nc(N2CCC(N3CCN(c4ccc(O)cc4)CC3)C2=O)ccc1-c1cn[nH]c1 (racemic) [Example 288, 3-(4-(44iydroxyphenyl)piperazin-1-yl)-1-(6-methoxy-5-(1H-pyrazol-4-yl)pyridin-2-yl)pyrrolidin-2-one]",100 to 2200 nM
7,"COc1ccc(C(N)=O)c(NC2CCN(c3ccc(-c4cn[nH]c4)cc3)C2=O)c1 (racemic) [Example 324, 2-((1-(4-(1H-pyrazol-4-yl)phenyl)-2-oxopyrrolidin-3-yl)amino)-4-methoxybenzamide]",100 to 2200 nM
8,"COc1ccc(C(=O)OC2CCN(c3ccc(-c4cn[nH]c4)cc3)C2=O)c(N)c1 (racemic) [Example 327, 1-(4-(1H-pyrazol-4-yl)phenyl)-2-oxopyrrolidin-3-yl2-amino-4-methoxybenzoate]",100 to 2200 nM
9,"COc1cc(NC2CCN(c3ccc(-c4cn[nH]c4)c(OCCN(C)C)c3)C2=O)ccc1F (racemic) [Example 346, 1-(3-(2-(dimethylamino)ethoxy)-4-(1H-pyrazol-4-yl)phenyl)-3-((4-fluoro-3-methoxyphenyl)amino)pyrrolidin-2-one]",100 to 2200 nM
10,"COc1cccc(NC2CCN(c3ccc(-c4cn[nH]c4)c(C(O)C(F)(F)F)c3)C2=O)c1 (racemic) [Example 348, 1-(4-(1H-pyrazol-4-yl)-3-(2,2,2-trifluoro-1-hydroxyethyl)phenyl)-3-((3-methoxyphenyl)amino)pyrrolidin-2-one]",100 to 2200 nM
11,"COc1ccc(NC2CCN(c3ccc(-c4cn[nH]c4)cc3)C2=O)cc1F (single isomer, unassigned) [Example 13, 1-(4-(1H-Pyrazol-4-yl)phenyl)-3-((3-fluoro-4-methoxyphenyl)amino)pyrrolidin-2-one]",100 to 2200 nM
12,"COc1c(F)cccc1NC1CCN(c2ccc(-c3cn[nH]c3)cc2)C1=O (single isomer, unassigned) [Example 15, 1-(4-(1H-pyrazol-4-yl)phenyl)-3-((3-fluoro-2-methoxyphenyl)amino)pyrrolidin-2-one]",< 10 nM

# Further lines, results first:
row,IC50,Structure (SMILES)
1,100 to 2200 nM,"COc1nc(N2CCC(N3CCCC(C)(C)C3)C2=O)ccc1-c1cn[nH]c1 (racemic) [Example 278, 3-(3,3-dimethylpiperidin-1-yl)-1-(6-methoxy-5-(1H-pyrazol-4-yl)pyridin-2-yl)pyrrolidin-2-one]"
2,10 to 100 nM,"COc1nc(N2CCC(N3CCS(=O)(=O)CC3)C2=O)ccc1-c1cn[nH]c1 (racemic) [Example 280, 3-(1,1-dioxidothiomorpholino)-1-(6-methoxy-5-(1H-pyrazol-4-yl)pyridin-2-yl)pyrrolidin-2-one]"
3,10 to 100 nM,"COc1nc(N2CCC(N3CCCC(F)C3)C2=O)ccc1-c1cn[nH]c1 (racemic) [Example 283, 3-(3-fluoropiperidin-1-yl)-1-(6-methoxy-5-(1H-pyrazol-4-yl)pyridin-2-yl)pyrrolidin-2-one hydrochloride]"
4,100 to 2200 nM,"COc1nc(N2CCC(N3CCC(F)(F)C3)C2=O)ccc1-c1cn[nH]c1 (racemic) [Example 284, 3,3-difluoro-1′-(6-methoxy-5-(1H-pyrazol-4-yl)pyridin-2-yl)-[1,3′-bipyrrolidin]-2′-one hydrochloride]"
5,100 to 2200 nM,"COc1nc(N2CCC(N3CCC(C(F)(F)F)CC3)C2=O)ccc1-c1cn[nH]c1 (racemic) [Example 285, 1-(6-methoxy-5-(1H-pyrazol-4-yl)pyridin-2-yl)-3-(4-(trifluoromethyl)piperidin-1-yl)pyrrolidin-2-one hydrochloride]"
6,10 to 100 nM,"COc1nc(N2CCC(N3CCC(CO)CC3)C2=O)ccc1-c1cn[nH]c1 (racemic) [Example 289, 3-(4-(hydroxymethyl)piperidin-1-yl)-1-(6-methoxy-5-(1H-pyrazol-4-yl)pyridin-2-yl)pyrrolidin-2-one]"
7,100 to 2200 nM,"COc1nc(N2CCC(N3CC[C@H](F)C3)C2=O)ccc1-c1cn[nH]c1 (mixture of isomers) [Example 290, (3S)-3-fluoro-1′-(6-methoxy-5-(1H-pyrazol-4-yl)pyridin-2-yl)-[l,3′-bipyrrolidin]-2′-one hydrochloride]"
8,100 to 2200 nM,"COc1nc(N2CCC(N3CCC(OC)CC3)C2=O)ccc1-c1cn[nH]c1 (racemic) [Example 291, 1-(6-methoxy-5-(1H-pyrazol-4-yl)pyridin-2-yl)-3-(4-methoxypiperidin-1-yl)pyrrolidin-2-one hydrochloride]"
9,10 to 100 nM,"COc1nc(N2CCC(N3CCC(=O)CC3)C2=O)ccc1-c1cn[nH]c1 (racemic) [Example 292, 1-(1-(6-methoxy-5-(1H-pyrazol-4-yl)pyridin-2-yl)-2-oxopyrrolidin-3-yl)piperidin-4-one hydrochloridehydrate]"
10,100 to 2200 nM,"COc1nc(N2CCC(N3CC[C@@H](N(C)C)C3)C2=O)ccc1-c1cn[nH]c1 (mixture of isomers) [Example 293, (3R)-3-(dimethylamino)-1′-(6-methoxy-5-(1H-pyrazol-4-yl)pyridin-2-yl)-[l,3′-bipyrrolidin]-2′-one]"
11,100 to 2200 nM,"COc1nc(N2CCC(N3CC[C@H](NC(C)=O)C3)C2=O)ccc1-c1cn[nH]c1 (mixture of isomers) [Example 294, N-((3S)-1′-(6-methoxy-5-(1H-pyrazol-4-yl)pyridin-2-yl)-2′-oxo-[1,3′-bipyrrolidin]-3-yl)acetamide]"
12,100 to 2200 nM,"COc1nc(N2CCC(N3CC[C@H](O)C3)C2=O)ccc1-c1cn[nH]c1 (mixture of isomers) [Example 295, (3S)-3-hydroxy-1′-(6-methoxy-5-(1H-pyrazol-4-yl)pyridin-2-yl)-[l,3′-bipyrrolidin]-2′-one]"
13,10 to 100 nM,"COc1nc(N2CCC(N3CCC(F)CC3)C2=O)ccc1-c1cn[nH]c1 (racemic) [Example 296, 3-(4-fluoropiperidin-1-yl)-1-(6-methoxy-5-(1H-pyrazol-4-yl)pyridin-2-yl)pyrrolidin-2-one hydrochloride]"

# From patent US10112929B2, “Lactams as inhibitors of rock” (BRISTOL-MYERS SQUIBB COMPANY, priority 2015, dated 2018)
